US20060062793A1, “Modified antibodies to prostate-specific membrane antigen and uses thereof” (priority 2004, published 2006)

Tests used:
LNCaP tumor sections = assay type: in vivo, mouse
[1] = system: hormone-independent prostate cancer; assay: Phase I trial of trace-labeled 131I-J591 (murine) in hormone-independent prostate cancer patients; assay type: in vivo, human
Method: Hormone-independent patients with rising PSA levels and acceptable hematologic, hepatic and renal function received a single dose of murine mAb J591. Doses are escalated (from 0.5-300 mg) in groups of three to six patients. Each dose included ≦1.0 mg J591 labeled with 10 mCi ^131I iodine as a tracer plus “cold” mAb. The dose levels used ranged from 0.5 to 300.0 mg as follows: 0.5 mg, 1.0 mg, 2.0 mg, 5.0 mg, 10 mg, 25 mg, 50 mg, 100 mg, 125 mg, 150 mg, 200 mg, 250 mg, and 300 mg. Blood and urine were collected to monitor pharmacokinetics, toxicity and human anti-mouse antibody (HAMA) response. Patients were imaged on the day of injection (day 0), as well as days 2, 4 and 6 to track mAb targeting.

[2] = system: PSMA-negative DU145 tumors; assay type: in vivo, mouse; conditions: 4 days post injection, DU145 tumors (n=6)
Method: (§1) Prior to use, the cells were trypsinized, counted and suspended in Matrigel (Collaborative Biomedical Products, Bedford, Mass.). Nu/Nu Balb C mice 8-10 weeks of age were inoculated, in the right and left flanks, with a suspension of 5×10^6 LNCaP cells in Matrigel (BD Biosciences, Bedford Mass.). After a period of 14-18 days, tumors (100-300 mg) had developed. The PSMA-negative DU145 and PC3 cells were implanted in nude mice in an identical manner.
(§2) The PSMA-positive and PSMA-negative tumor bearing mice were injected, via the tail vein, with 80 KBq of the iodinated MAb (400 MBq/mg) in 200 μL of PBS (pH 7.4, 0.2% BSA). Groups of animals (3-8/group) were sacrificed after 2, 4 or 6 days. The major organs and tumors were recovered. The tissue samples were weighed and counted, with appropriate standards in an automatic NaI(Tl) counter. These measured relative activity data (cpm) were background corrected and expressed as a percentage of the injected dose per gram (% ID/g). […] J415, J591 and 7E11 were labeled with ^111In (100 MBq/mg). 80 KBq of the ^111In labeled MAbs were injected in groups of animals. The % ID/g in various organs and tumor tissues was determined at 2-6 days post injection in a similar way as described for ^131I labeled MAbs.
(§3) The uptake in lungs, kidney, muscle was similar with all three antibodies.

PSMA-negative PC3 tumors = assay type: in vivo, mouse; conditions: 4 days post injection, PC3 tumors (n=10)
Method: as §1, §2, §3

[3] = system: PSMA-positive human LNCaP tumors; assay: Biodistribution of 111In labeled MAbs in nude mice bearing LNCaP tumors; assay type: in vivo, mouse
Method: as §1, §2

LNCaP tumor = assay: Gamma camera imaging of nude mice with 111In-DOTA-J591; assay type: in vivo, mouse; conditions: days 1-6
Method: For the imaging studies, animals were injected with 2 MBq of ^111In-DOTA-J591. On days 1, 2, 3, 4 and 6 post-injection, the mice were sedated with ketamine/xylazine 100 mg/kg/10 mg/kg IP. The mice were imaged with a gamma camera (Transcam, ADAC Laboratories, Milpitas, Calif.) equipped with a pinhole collimator. The images were acquired in a 256×256 matrix for 1000 seconds using a 20% window of 245 KeV photopeak of ^111In.

[4] = system: recurrent, progressing prostate cancer; assay: Phase I trial of four weekly doses of 111In-DOTA-deJ591; set-up: species or system human; conditions: in vivo
Method: Patients with recurrent, progressing prostate cancer received four weekly doses of ^111In-DOTA-deJ591. Doses were escalated in cohorts of three patients and ranged from 62.5-500 mg/m2 (total). […] After the first dose, patients were imaged on the day of injection (day 0) and days 1, 2, 4 and 7.
Serum PK, immune reaction and toxicity were evaluated after each dose for a minimum of 12 weeks.

[5] = system: hormone refractory prostate cancer; assay: 111In-DOTA-deJ591 targeting of hormone refractory prostate cancer (single 20 mg dose, imaging); assay type: in vivo, human
[6] = system: PSMA-positive CWR22 xenografts; assay: deJ591-DM1 efficacy in PSMA-positive CWR22 xenografts in scid mice; assay type: in vivo, mouse
Method: Experiment: Male SCID mice were implanted by serial passage of CWR22 prostate tumor xenograft. […] All treatments were given intravenously. Tumor growth and animal health were continually monitored throughout the study with tumor growth measured every 3 days.
Experiment: Male C.B-17 SCID mice bearing CWR22 xenografts approximately 200 mm^3 in size received IV injections (200 μL constant volume) of the test articles according to the dose and schedule as shown in Table 22.
Male C.B-17 scid mice bearing CWR22 xenografts approximately 200 mm^3 in size received IV injections (200 μL constant volume) of the test articles according to the dose and schedule shown in the Table 23.
The objective of this study was to determine how much the dosing interval could be increased at this dosage before a loss of efficacy in terms of TGD would be observed. […] The growth delays for the other schedules were: q7d, 53.0 days; q21d, 48.0 days; and q28d, 26.9 days. Similar to other studies using the CWR22 xenograft model, no curative responses were observed, with all tumors eventually resuming growth (FIG. 18).
Experiment: Male SCID mice were implanted by serial passage of CWR22 prostate tumor xenograft. […] All treatments were given intravenously and on a schedule of every three days for 5 doses. Tumor growth and animal health were continually monitored throughout the study with tumor growth measured every 3 days.
Experiment: Male SCID mice were implanted by serial passage of CWR22 prostate tumor xenograft. […] All treatments were given intravenously and on a schedule of every seven days for 5 doses. Tumor growth and animal health were continually monitored throughout the study with tumor growth measured every 3 days.

[7] = system: androgen-independent PSMA-positive 22RV1 xenograft; assay: deJ591-DM1 efficacy in castrate or intact scid mice bearing 22RV1 xenograft; assay type: in vivo, mouse
Method: Prostate tumors can be broadly classified as either androgen-dependent or androgen-independent. […] The 22RV1 cell line was originally developed as androgen-independent and can be grown as a xenograft in C.B-17 scid mice that have been left either intact or castrated. […] This was approximately twice the time required for the tumors of intact mice to reach 1000 mm^3 (9.3 days). C.B-17 scid mice bearing CWR22 xenografts approximately 200 mm^3 in size received IV injections (200 μL constant volume) of the test articles according to the dosage and schedule shown in the Table 24.

prostate tissue = assay: Immunohistochemistry of DOTA conjugated deJ591
Method: Immunohistochemistry was performed on the DOTA conjugated, partially purified, bulk intermediate deJ591.

[8] = system: metastatic androgen-independent prostate cancer; assay: Phase 1 ascending dose trial of DM1 conjugated deJ591 in metastatic androgen-independent prostate cancer; assay type: in vivo, human
Method: Based upon emerging clinical safety and PK, repeat dosing at four week intervals was subsequently permitted.
DLT is defined as the occurrence of one or more of the following: • Hematologic: Grade 4 thrombocytopenia (platelet count <10,000/mm3) • Requirement for platelet transfusion and/or other methods to increase platelet count • Febrile neutropenia (ANC<1000/mm^3 concurrent with a temperature >38.5° C.). (Per the Infection/Febrile Neutropenia subsection of the NCI CTC version 2.0, febrile neutropenia is, by definition, a >Grade 3 toxicity) • Grade 4 neutropenia without fever of >7 days duration • Grade 3 neutropenia requiring granulocyte colony-stimulating factor (G-CSF) administration • Grade 4 anemia (hemoglobin <6.5 g/dL) • Grade 3 anemia (hemoglobin 6.5-<8.0 g/dL) in a subject receiving EpogenÒNon-hematologic • Any Grade 3 non-hematologic toxicity considered by the investigator to be possibly related to study drugMTD is defined as the highest dose level with an observed incidence of DLT in no more than 1 out of 6 subjects. […]
The starting dose is 18 mg/m2. […] Dose escalation will continue until DLT and MTD are determined. […] Subsequent dose escalation and enrollment will be determined by the number and grade of toxicities observed in these two additional subjects. […] The previous dose level will be evaluated as potential MTD. […]

[9] = 14.5 mg/kg, 7 and 14 day dosing interval

## ^131I-J591: murine mAb J591 labeled with 131I iodine
LNCaP tumor sections; incubated directly on the tissue section
  binding pattern, ex vivo autoradiography: homogeneous binding pattern
[1]; 33 patients
  adverse events related to the murine antibody: Only one patient had an adverse event related to the murine antibody
[1]; eight out of nine
  positive monoclonal antibody scans among patients with positive soft tissue (CT scans): about 90%
[1]; human, in vivo
  human anti-murine antibody (HAMA) response: Eight out of sixteen evaluable patients
[1]; patients with disease sites imaged by conventional studies
  patients in whom known sites of prostate cancer metastases can be imaged: approximately 80%
[1]; twenty-four out of twenty-seven
  positive monoclonal antibody scans among patients with positive bone scans: about 90%

## ^131I-deJ591
[2]
  tumor uptake: 0.55±0.03 % ID/g
PSMA-negative PC3 tumors
  tumor uptake: 0.66±0.07 % ID/g

## J591: murine monoclonal antibody to the extracellular domain of human PSMA; hybridoma ATCC HB-12126
[3]
  kinetics of blood clearance: faster compared to 7E11
LNCaP tumor sections; 131I-labeled, 4 to 6 days after intravenous injection
  intra-tumoral distribution pattern: distinct preferential accumulation in areas of viable tumor

## ^111In-DOTA-deJ591
LNCaP tumor
  tumor accumulation on serial gamma camera images: intense tumor accumulation
[4]
  mAb targeting to non-prostate cancer sites: No mAb targeting to non-prostate cancer sites was noted
[5]; 20 mg deJ591
  Plasma clearance (T1/2): 34 ± 5 h
[5]; day 6
  Liver uptake: 27±1.7%
[5]; patients with intact but irradiated prostate
  accumulation in the prostate gland: generally minimal
[5]; with 111In
  absorbed dose by the liver: 2.8±0.25 rads/mCi

## COc1cc2cc(c1Cl)N(C)C(=O)C[C@H](OC(=O)[C@H](C)N(C)C(C)=O)[C@]1(C)O[C@H]1[C@H](C)[C@@H]1C[C@@](O)(NC(=O)O1)[C@H](OC)/C=C/C=C(\C)C2 [Maytansine, reference compound]
[6]; 240 μg/kg (240 μg/kg DM1-equivalents), qdX5, IV, Comparison I
  Tumor Growth Delay: 17.7 days

## MLN2704
[7]; Castrate mice, 22RV1 xenograft, 240 μg/kg DM1-equivalents, q7dX5
  Tumor Growth Delay: 21.4 days

## DOTA-deJ591
Prostate tissue
  tissue specificity by immunohistochemistry: specific to prostate tissue
Prostate tissue; compared with naked deJ591
  reactivity by immunohistochemistry: equivalent to the naked deJ591 antibody

## deJ591-DM1: deJ591 conjugated via SPP disulfide linker to the maytansinoid cytotoxin DM1
[6]; [9]
  resumption of normal growth kinetics after the last dose: approximately 30 days
  tumor growth: apparent block in tumor growth
[6]; 14.5 mg/kg, every three days for 5 doses, IV
  suppression of tumor growth following the last administered dose: approximately 20 days
[6]; SCID mouse xenografts, DM1-equivalents
  Efficacious dosage in SCID mouse xenografts, DM1-Equivalents received: ˜0.72 mg/m^2
[6]; doses and schedules of Comparison I, non-curative
  tumor growth inhibitory effect: substantial tumor growth inhibitory effect
[6]; second course, 12.93 mg/kg
  effect on large tumors (500 to 2000 mm^3): potent regressions in large tumors
[7]; androgen-intact mice, q3d schedule
  TGD compared to DM1 at equivalent dose and schedule: better TGD
[8]; highest dose level 343 mg/m^2
  dose-limiting toxicity: Only one DLT, an uncomplicated febrile neutropenia
[8]; one patient, 264 mg/m^2
  tumor response: PR by RECIST criteria
